Experiments:
Type in all cases: cell-based
[1] = system: human mesenchymal stem cells; test: Adipose differentiation of human mesenchymal stem cells: expression of adiponectin and PPARγ by quantitative RT-PCR; conditions: for level of expression of adiponectin: 3 μM compound added with adipose differentiation induction, 5 days, relative to DMSO control; for level of expression of PPARγ: adipose differentiation, 5 days (FIG. 12a)
Experimental: There was possibility that the selected compounds control the differentiation of adult stem cells as well as ES cells. Accordingly, the influence of these selected compounds was examined on adipose differentiation of human mesenchymal stem cells. The human mesenchymal stem cells were purchased from Lonza and subjected to adhesion culturing using a medium made by addition of 10% calf fetal serum, 2 mM GlutaMAX-1, and 1× penicillin-streptomycin (Sigma) (hereinafter referred to as “growth medium”) to low-glucose DMEM (Invitrogen). Upon induction of an adipose differentiation, cells were seeded on a 96-well plate to 3,000 cells per well and then cultured overnight using the growth medium. Thereafter, the adipose differentiation was induced by exchanging the growth medium with an adipose differentiation induction medium (i.e., a medium made by addition of 10% calf fetal serum, 2 mM GlutaMAX-1, 0.5 mM 3-isobutyl-1-methylxanthine (IBMX, Wako Pure Chemical Industries Ltd.), 10 μg/ml insulin (Wako Pure Chemical Industries Ltd.), 1 μM dexamethasone (Wako Pure Chemical Industries Ltd.), 200 μM indomethacin (Wako Pure Chemical Industries Ltd.), and 1× penicillin-streptomycin (Sigma) to high-glucose DMEM (Invitrogen)). Simultaneously with inducing adipose differentiation, each selected compound was added to a final concentration of 3 μM, followed by culture for 5 days. After 5 days, the level of expression of adiponectin as a fat cell marker was measured using the same technique as that described in Example 1.
In addition, the level of expression of PPARγ as a master regulator of adipose differentiation for which the 3 compounds (Y-27632, HA-100 and capsazepine) were each added was also measured using the same technique.

[2] = system: human mesenchymal stem cells; test: Adipose differentiation of human mesenchymal stem cells: fat droplet formation, oil red O staining; conditions: adhesion culturing 5 days
Experimental: The influence of the 3 compounds on fat droplet formation was then examined. Simultaneously with inducing adipose differentiation, 10 μM Y-27632, 10 μM HA-100, or 3 μM capsazepine was added to an adipose differentiation induction medium, followed by adhesion culturing for 5 days. Thereafter, the cells were fixed with 4% paraformaldehyde (Wako Pure Chemical Industries Ltd.) for 30 minutes and then washed 3 times with PBS. In addition, the cells were stained with 0.36% oil red 0 (Chemicon) at room temperature for 50 minutes and then washed 3 times with distilled water, followed by observing and photographing the cell.

[3] = system: human mesenchymal stem cells; test: Adipose differentiation of human mesenchymal stem cells: amount of adiponectin in culture solution, ELISA; conditions: adhesion culture 8 days
Experimental: In addition, when each of the 3 compounds was added, the amount of adiponectin contained in a corresponding culture solution was measured. Simultaneously with inducing adipose differentiation, 10 μM Y-27632, 10 μM HA-100, or 3 μM capsazepine was added, followed by adhesion culture for 8 days. After culture, the amount of adiponectin contained in the culture solution was measured using a human adiponectin ELISA kit (R&D systems).

[4] = system: human mesenchymal stem cells; test: Bone differentiation of human mesenchymal stem cells: expression of Alp1, Runx2, Col1a1 and PTHR by quantitative RT-PCR; conditions: 8 days; for level of expression of Alp1: 3 μM compound added with bone differentiation induction, relative to DMSO control
Experimental: Then, the influence of the selected compounds was examined on bone differentiation of human mesenchymal stem cells. The human mesenchymal stem cells were maintained and cultured using the same technique as in Example 6. Cells were seeded on a 96-well plate to 1,000 cells per well and then cultured overnight using the growth medium. Thereafter, the bone differentiation was induced by exchanging the medium with a medium made by addition of 10% calf fetal serum, 2 mM GlutaMAX-1, 10 mMβ-glycerophosphate (Wako Pure Chemical Industries Ltd.), 0.05 mM ascorbic acid-2-phosphate (Wako Pure Chemical Industries Ltd.), 0.1 μM dexamethasone (Wako Pure Chemical Industries Ltd.), and 1× penicillin-streptomycin (Sigma) to low-glucose DMEM. Simultaneously with inducing bone differentiation, each selected compound was added to a final concentration of 3 μM, followed by adhesion culture for 8 days. After the end of culture, the level of expression of Alkaline phosphatase (Alp1) as an initial osteoblast marker was measured using the same technique as in Example 1.
The expression of other bone differentiation markers for which BIO or BrdU was added was also examined. Adhesion culture was performed for 8 days after adding BIO or BrdU, followed by measuring the levels of expression of runt-related transcription factor 2 (Runx2), collagen type 1 alpha 1 (Col1a1), and parathyroid hormone receptor (PTHR) using the same technique as in Example 1.

[5] = system: human mesenchymal stem cells; test: Bone differentiation of human mesenchymal stem cells: staining with alkaline phosphatase; conditions: 8 days
Experimental: To further verify the influence of compounds on bone differentiation, staining with alkaline phosphatase was performed. Simultaneously with inducing bone differentiation, 3 μM BIO or 10 μM BrdU was added, followed by adhesion culture for 8 days. After culture, cells were fixed with 4% paraformaldehyde (Wako Pure Chemical Industries Ltd.) for 30 minutes and then washed 3 times with PBS. Alkaline phosphatase kit III (Vector Laboratories) was used according to the appended protocol to stain with alkaline phosphatase.

[6] = system: human mesenchymal stem cells; test: Bone differentiation of human mesenchymal stem cells: amount of calcium accumulated in cells; conditions: 15 days
Experimental: In addition, the amount of calcium accumulated in cells was examined. Simultaneously with inducing bone differentiation, 3 μM BIO or 10 μM BrdU was added, followed by adhesion culture for 15 days. After culture, cells were washed with PBS, followed by dissolving the cells in a solution consisting of 10 mM Tris-HCl and 0.2% TritonX-100. Using a portion of the solution, the protein concentration was measured employing BCA protein assay kit (Pierce). Hydrochloric acid was added to a final concentration of 0.5 N to the remaining solution, which was then shaken overnight. The amount of calcium dissolving in the solution containing 0.5 N hydrochloric acid was measured using Calcium E-test Kit Wako (Wako Pure Chemical Industries Ltd.). The amount of calcium used the value corrected for the amount of protein for analysis.

Oc1cc2c(cc1O)CN(C(=S)NCCc1ccc(Cl)cc1)CCC2 [capsazepine] was tested, and the “level of expression of adiponectin” value [1] was “increase the level of expression of adiponectin”, the “amount of fat droplets (oil red O) compared to DMSO control” value (shortened to “amount … compared to DMSO control”) ([2]; 3 μM compound) was “no noticeable activity of increasing fat droplet formation” and the “amount of adiponectin contained in the culture solution” value (shortened to “amount of adiponectin contained”) ([3]; 3 μM compound) was “no action of increasing the amount of adiponectin”.
In the case of C[C@@H](N)[C@H]1CC[C@H](C(=O)Nc2ccncc2)CC1 [Y-27632], the “level of expression of adiponectin” value [1] is reported as “increase the level of expression of adiponectin”, the “level of expression of PPARγ” value [1] is reported as “increasing the level of expression of PPARγ in a concentration-dependent manner” and the “amount … compared to DMSO control” value ([2]; 10 μM compound) is reported as “the amount of fat droplets increased”. The “amount of adiponectin contained” value ([3]; 10 μM compound) was “noticeably increased the amount of adiponectin”.
For O=S(=O)(c1cccc2cnccc12)N1CCNCC1 [HA-100], the “level of expression of adiponectin” value [1] was “increase the level of expression of adiponectin”, the “level of expression of PPARγ” value [1] was “increasing the level of expression of PPARγ in a concentration-dependent manner” and the “amount … compared to DMSO control” value ([2]; 10 μM compound) was “the amount of fat droplets increased”. For the same compound, the “amount of adiponectin contained” value ([3]; 10 μM compound) was “noticeably increased the amount of adiponectin”.
For O=c1[nH]c(=O)n([C@H]2C[C@H](O)[C@@H](CO)O2)cc1Br [BrdU, 5-Bromo-2′-deoxyuridine], the “level of expression of Alp1” value [4] was “noticeably increasing the level of expression of Alp1”, the “level of expression of Col1a1” value ([4]; 10 μM compound) was “noticeably increased” and the “level of expression of PTHR” value ([4]; 10 μM compound) was “noticeably increased”. The “level of expression of Runx2” value ([4]; 10 μM compound) was “noticeably increased”, the “stainability with alkaline phosphatase (alkaline phosphatase activity)” value ([5]; 10 μM compound) was “increased the stainability with alkaline phosphatase” and the “amount of calcium in cells, corrected for amount of protein” value ([6]; 10 μM compound) was “increased the amount of calcium in cells”.
O=C1Nc2cc(Br)ccc2/C1=C1/Nc2ccccc2/C1=N\O [BIO, 6-bromoindirubin-3′ oxime] was tested, and the “level of expression of Alp1” value [4] was “noticeably increasing the level of expression of Alp1”, the “level of expression of Col1a1” value ([4]; 3 μM compound) was “noticeably increased” and the “level of expression of PTHR” value ([4]; 3 μM compound) was “noticeably increased”. The “level of expression of Runx2” value ([4]; 3 μM compound) was “noticeably increased”, the “stainability with alkaline phosphatase (alkaline phosphatase activity)” value ([5]; 3 μM compound) was “increased the stainability with alkaline phosphatase” and the “amount of calcium in cells, corrected for amount of protein” value ([6]; 3 μM compound) was “increased the amount of calcium in cells”.

Source: US20120142005A1, “METHOD FOR SCREENING OF REGENERATIVE MEDICINE” (TAKEDA PHARMACEUTICAL COMPANY LIMITED, priority 2009, published 2012)
